Laboratory results from US7704995B2 (Exelixis, Inc., priority 2003, dated 2010).

Target: T1, Chk1 (Homo sapiens, UniProt O14757)
T1 construct: purchased Upstate Biotechnology
T1 sequence (O14757 1-476): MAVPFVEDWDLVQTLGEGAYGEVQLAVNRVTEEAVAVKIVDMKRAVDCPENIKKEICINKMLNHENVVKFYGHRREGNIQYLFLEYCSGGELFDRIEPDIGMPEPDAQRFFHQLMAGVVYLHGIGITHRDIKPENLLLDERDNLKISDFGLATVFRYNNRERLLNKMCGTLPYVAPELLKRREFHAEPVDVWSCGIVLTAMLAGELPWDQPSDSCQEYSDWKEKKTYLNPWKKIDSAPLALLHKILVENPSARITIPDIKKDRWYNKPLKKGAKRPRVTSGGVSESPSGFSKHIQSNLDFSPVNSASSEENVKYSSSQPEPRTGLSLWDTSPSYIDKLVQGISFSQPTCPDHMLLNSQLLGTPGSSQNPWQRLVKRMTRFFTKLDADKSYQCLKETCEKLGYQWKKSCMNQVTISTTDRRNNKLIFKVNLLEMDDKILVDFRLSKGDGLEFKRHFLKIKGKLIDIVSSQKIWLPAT
Assay: Chk1 kinase assay: incorporation of γ-33P ATP into immobilized myelin basic protein
Assay type: biochemical
Settings: Table 11; Chk1 only; read-out: Chk1 IC50
Method in brief: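 Immobilized-MBP radiometric kinase assay, room temperature for 1 h; ATP 10 μM (Chk1, 10 nM enzyme) or 30 μM (Chk2, 20 nM enzyme) with 33P tracer. Values are IC50s, with Ki derived from them.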

SMILES | IC50 [µM]
Nc1ncc(-c2cccc(C(=O)NCc3ccccc3)c2)nc1C(=O)N[C@H]1CCN(C2CCNCC2)C1 [Example 687, 3-amino-6-(3-{[(phenylmethyl)amino]carbonyl}phenyl)-N-[(3S)-1-piperidin-4-ylpyrrolidin-3-yl]pyrazine-2-carboxamide] | 1 to 10
CC(C)(C)OC(=O)N1CCC[C@@H]1CN1CC[C@H](NC(=O)c2nc(-c3cccc(C(=O)NCc4ccccc4)c3)cnc2N)C1 [Example 688, 1,1-dimethylethyl (2R)-2-{[(3S)-3-({[3-amino-6-(3-{[(phenylmethyl)amino]carbonyl}phenyl)pyrazin-2-yl]carbonyl}amino)pyrrolidin-1-yl]methyl}pyrrolidine-1-carboxylate] | ≥ 10
Nc1ncc(-c2cccc(C(=O)NCc3ccccc3)c2)nc1C(=O)N[C@H]1CCN(C[C@H]2CCCN2)C1 [Example 689, 3-amino-6-(3-{[(phenylmethyl)amino]carbonyl}phenyl)-N-{(3S)-1-[(2R)-pyrrolidin-2-ylmethyl]pyrrolidin-3-yl}pyrazine-2-carboxamide] | 1 to 10
CN(C)c1ccc(CN2CC[C@H](NC(=O)c3nc(-c4cccc(C(=O)NCc5ccccc5)c4)cnc3N)C2)cc1 [Example 690, 3-amino-N-((3S)-1-{[4-(dimethylamino)phenyl]methyl}pyrrolidin-3-yl)-6-(3-{[(phenylmethyl)amino]carbonyl}phenyl)pyrazine-2-carboxamide] | 1 to 10
CN(C)c1ccc(NC(=O)NCCNC(=O)c2nc(-c3cccc(C(=O)NCc4ccccc4)c3)cnc2N)cc1 [Example 691, 3-amino-N-{2-[({[4-(dimethylamino)phenyl]amino}carbonyl)amino]ethyl}-6-(3-{[(phenylmethyl)amino]carbonyl}phenyl)pyrazine-2-carboxamide] | ≥ 10
CN(C)c1ccc(C(=O)NCCNC(=O)c2nc(-c3cccc(C(=O)NCc4ccccc4)c3)cnc2N)cc1 [Example 692, 3-amino-N-[2-({[4-(dimethylamino)phenyl]carbonyl}amino)ethyl]-6-(3-{[(phenylmethyl)amino]carbonyl}phenyl)pyrazine-2-carboxamide] | ≥ 10
N=C(NNc1ccccn1)c1nc(-c2cccc(C(=O)NCc3ccccc3)c2)cnc1N [Example 693, 3-{5-amino-6-[imino(2-pyridin-2-ylhydrazino)methyl]pyrazin-2-yl}-N-(phenylmethyl)benzamide] | ≥ 10
Nc1ncc(-c2cccc(C(=O)NCc3ccccc3)c2)nc1CN1CCOCC1 [Example 694, 3-[5-amino-6-(morpholin-4-ylmethyl)pyrazin-2-yl]-N-(phenylmethyl)benzamide] | ≥ 10
CCOC(=O)C1CCN(Cc2nc(-c3cccc(C(=O)NCc4ccccc4)c3)cnc2N)CC1 [Example 695, ethyl 1-{[3-amino-6-(3-{[(phenylmethyl)amino]carbonyl}phenyl)pyrazin-2-yl]methyl}piperidine-4-carboxylate] | ≥ 10
Nc1ncc(-c2cccc(C(=O)NCc3ccccc3)c2)nc1C(=O)N[C@H]1CCN(Cc2ccccn2)C1 [Example 696, 3-amino-6-(3-{[(phenylmethyl)amino]carbonyl}phenyl)-N-[(3S)-1-(pyridin-2-ylmethyl)pyrrolidin-3-yl]pyrazine-2-carboxamide] | 0.05 to 1
COC(=O)[C@@H](NC(=O)c1nc(-c2cccc(C(=O)NCc3ccccc3)c2)cnc1N)[C@@H](C)O [Example 697, methyl N-{[3-amino-6-(3-{[(phenylmethyl)amino]carbonyl}phenyl)pyrazin-2-yl]carbonyl}threoninate] | ≥ 10
Nc1ncc(-c2cccc(CO)c2)nc1-c1nc(C2CCCCN2)n[nH]1 (stereo not shown) [Example 698, {3-[5-amino-6-(3-piperidin-2-yl-1H-1,2,4-triazol-5-yl)pyrazin-2-yl]phenyl}methanol] | ≥ 10
CCNc1ncc(-c2cccc(C(=O)NCc3ccccc3)c2)nc1C(=O)N[C@H]1CCN(CC)C1 [Example 699, 3-(ethylamino)-N-[(3S)-1-ethylpyrrolidin-3-yl]-6-(3-{[(phenylmethyl)amino]carbonyl}phenyl)pyrazine-2-carboxamide] | ≥ 10
